Data as given in article PMC8151276, “An Integrated Approach toward NanoBRET Tracers for Analysis of GPCR Ligand Engagement” (Molecules, 2021).

How the values were obtained:
Type in all cases: binding
MTNR1B = biological target: T1, MTNR1B (Homo sapiens, UniProt P49286); assay: NanoBRET screen HiBiT-MTNR1B in HEK293
T1 construct: purchased Promega (in-house HiBiT-GPCR construct library, NanoBRET)
T1 sequence (P49286 1-362): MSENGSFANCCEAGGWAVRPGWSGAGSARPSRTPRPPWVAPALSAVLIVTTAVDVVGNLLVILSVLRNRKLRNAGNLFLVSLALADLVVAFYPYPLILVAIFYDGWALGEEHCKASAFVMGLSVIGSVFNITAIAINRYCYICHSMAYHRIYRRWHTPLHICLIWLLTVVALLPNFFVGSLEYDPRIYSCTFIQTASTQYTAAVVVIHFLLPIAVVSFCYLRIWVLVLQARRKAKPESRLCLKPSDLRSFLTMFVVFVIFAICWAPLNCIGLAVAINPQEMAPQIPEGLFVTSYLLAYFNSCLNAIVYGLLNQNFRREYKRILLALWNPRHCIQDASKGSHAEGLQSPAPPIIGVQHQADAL
Description: (§1) Each tracer candidate was screened across the entire library of HiBiT-GPCR constructs using NanoBRET as the detection modality. As depicted in Figure 4A, the specificity of interactions was evaluated through decrease in BRET due to competitive displacement of a bound tracer by excess parental compound. Each tracer was analyzed for binding to each HiBiT-GPCR fusion in the absence and in the presence of competing parental compound. Briefly, HEK293 cells were transfected with HiBiT-GPCR constructs diluted into promoterless DNA to reduce expression and maximize translocation to the cell surface. Each tracer candidate was then screened at concentrations of 1 μM and 0.1 μM across cells expressing these fusions. Cells were treated for 1.5 h with tracer either alone or in the presence of 20 μM competing parental compound (i.e., control). BRET was measured upon addition of purified LgBiT and subsequent complementation with HiBiT genetically fused to a GPCR. The specificity of interactions was assessed through a decrease in BRET signal due to competitive displacement of the bound tracer. To further gauge the robustness of these interactions, the fold response over the control (i.e., BRETtracer/BRETcontrol) was calculated. We chose a 1.5-fold response, which translates to ≥7-fold signal over noise as the minimal threshold required to score an interaction as positive. […]. Below we highlight the screening results obtained for our exemplary fluorescent tracers based on Clozapine, Amitriptyline and AZD1283.
(§2) HiBiT-GPCR DNA constructs were diluted in 10 mM Tris pH 8 to a final concentration of 0.01 μg/μL, arrayed in 96-well plates and stored at −20 °C. For transfection, HEK293 cells were suspended in Opti-MEM (without phenol red) supplemented with 2% fetal bovine serum (Seradigm) and 100 units/mL penicillin–streptomycin (Gibco) at a final concentration of 220,000 cells/mL and dispensed into white 96-well plates at 90 μL/well. Subsequent transfections and screens were carried using an Agilent Bravo Automated Liquid Handling Platform. First, the 96-well HiBiT DNA arrays were diluted 25-fold in Opti-MEM (without serum or phenol red) to a final concentration of 0.0004 μg/μL and 20 μL of the diluted DNAs were transferred into new 96-well plates. Next, promoterless carrier DNA (1 μg/μL) was diluted 25-fold (0.04 μg/μL) and then dispensed into the diluted arrays at 20 μL/well. Following brief mixing, Viafect transfection reagent (Promega) diluted 16-fold into Opti-MEM was dispensed into the plates at 40 μL/well. After mixing by pipetting, plates were incubated for 10 min on the pipetting station deck. The DNA-transfection reagent complexes were then added to plates containing cells. To facilitate the screen, 10 μL of DNA-transfection reagent complexes were added in duplicates to the top 4 and bottom 4 rows, resulting in two identical 48-well arrays per plate. Plates with transfected cells were incubated for 18–20 h at 37 °C/5% CO2. A screen of each tracer across the entire library using two different concentrations requires duplicate plates of transfected cells. Depending on the number of tracers being screened, transfections can be scaled up using the same ratios. The next day, for each tracer, four 20× screening solutions in tracer dilution buffer (Promega) were prepared: two duplicates at final concentration of 20 μM and two duplicates at a final concentration of 2 μM. A competing unmodified compound was added to one of each duplicate at a final concentration of 400 μM. The four resulting solutions were diluted 4-fold in Opti-MEM without serum or phenol red to generate 5× solutions (5 µM and 0.5 µM tracer +/− 100 μM competing compound). To screen the library, a BioTek MultiFlo FX liquid dispenser was used to dispense 22.5 µL of tracer solution to the top 4 rows and 22.5 µL tracer + competing compound solution to the 4 bottom rows. Plates were briefly mixed on an orbital shaker and incubated for 1.5 h at room temperature. […]

PTGER3 = biological target: T2, PTGER3 (Homo sapiens, UniProt P43115); assay: NanoBRET screen HiBiT-PTGER3 in HEK293
T2 construct: purchased Promega (in-house HiBiT-GPCR construct library, NanoBRET)
T2 sequence (P43115 1-390): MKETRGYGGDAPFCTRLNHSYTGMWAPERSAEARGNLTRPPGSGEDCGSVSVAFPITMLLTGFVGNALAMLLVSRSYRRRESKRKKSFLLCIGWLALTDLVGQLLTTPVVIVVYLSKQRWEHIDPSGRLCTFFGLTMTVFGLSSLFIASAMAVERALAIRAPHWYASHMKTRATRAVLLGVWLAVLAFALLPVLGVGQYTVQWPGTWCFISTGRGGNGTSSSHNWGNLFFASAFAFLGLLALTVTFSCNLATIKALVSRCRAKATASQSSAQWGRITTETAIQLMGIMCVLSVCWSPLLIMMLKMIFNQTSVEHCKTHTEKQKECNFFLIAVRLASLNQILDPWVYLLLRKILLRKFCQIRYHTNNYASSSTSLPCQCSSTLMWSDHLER
Description: as §1, §2

OXTR = biological target: T3, OXTR (Homo sapiens, UniProt P30559); assay: NanoBRET screen HiBiT-OXTR in HEK293
T3 construct: purchased Promega (in-house HiBiT-GPCR construct library, NanoBRET)
T3 sequence (P30559 1-389): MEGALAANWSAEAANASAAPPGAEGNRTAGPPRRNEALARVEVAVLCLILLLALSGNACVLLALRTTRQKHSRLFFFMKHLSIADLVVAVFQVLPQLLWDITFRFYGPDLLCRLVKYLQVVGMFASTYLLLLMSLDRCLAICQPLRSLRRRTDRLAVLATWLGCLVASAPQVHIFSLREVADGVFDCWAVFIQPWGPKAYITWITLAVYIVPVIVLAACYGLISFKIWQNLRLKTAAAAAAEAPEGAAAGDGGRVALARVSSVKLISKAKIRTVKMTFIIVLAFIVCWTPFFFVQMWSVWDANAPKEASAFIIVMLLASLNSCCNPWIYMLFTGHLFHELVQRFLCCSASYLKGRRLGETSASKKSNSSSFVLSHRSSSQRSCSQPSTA
Description: as §1, §2

CN1CCN(C2=Nc3cc(Cl)ccc3N(CC(=O)NCCOCCOCCOCCOCCNC(=O)CCc3ccc4n3[B-](F)(F)[N+]3=C(c5ccc[nH]5)C=CC3=C4)c3ccccc32)CC1 [Clozapine-c-2-NB590]
NanoBRET Fold Response (MTNR1B; MTNR1B, 0.1μM tracer): 0.98 | NanoBRET Fold Response (MTNR1B; MTNR1B, 1μM tracer): 1.02 | NanoBRET Fold Response (PTGER3; PTGER3, 0.1μM tracer): 1.00 | NanoBRET Fold Response (PTGER3; PTGER3, 1μM tracer): 1.11 | NanoBRET Fold Response (OXTR; OXTR, 0.1μM tracer): 0.97 | NanoBRET Fold Response (OXTR; OXTR, 1μM tracer): 0.96

CN(C)CCC=C1c2ccccc2CCc2ccc(C(=O)NCCNC(=O)CCOCCOCCOCCOCCNC(=O)CCc3ccc4n3[B-](F)(F)[N+]3=C(c5ccc[nH]5)C=CC3=C4)cc21 [Amitriptyline-a-2-NB590]
NanoBRET Fold Response (OXTR; tracer at 0.1μM): 0.99 | NanoBRET Fold Response (OXTR; tracer at 1μM): 1.09

Cc1nc2n(c(=O)c1CCN1CCC(c3noc4cc(F)ccc34)CC1)CCCC2OC(=O)NCCOCCOCCOCCOCCNC(=O)CCc1ccc2n1[B-](F)(F)[N+]1=C(c3ccc[nH]3)C=CC1=C2 (stereo not drawn) [Risperidone-2-NB590]
NanoBRET Fold Response (MTNR1B; MTNR1B, tracer 0.1μM): 0.99 | NanoBRET Fold Response (MTNR1B; MTNR1B, tracer 1μM): 0.92 | NanoBRET Fold Response (PTGER3; PTGER3, tracer 0.1μM): 0.94 | NanoBRET Fold Response (PTGER3; PTGER3, tracer 1μM): 1.12 | NanoBRET Fold Response (OXTR; OXTR, tracer 0.1μM): 0.97 | NanoBRET Fold Response (OXTR; OXTR, tracer 1μM): 0.97

COc1ccc2[nH]c(-c3ccc(CNC(=O)CCOCCOCCOCCOCCNC(=O)CCc4ccc5n4[B-](F)(F)[N+]4=C(c6ccc[nH]6)C=CC4=C5)cc3)c(CCNC(C)=O)c2n1 [AzomelatoninICO9-2-NB590]
NanoBRET Fold Response (MTNR1B; 0.1μM tracer): 2.05 | NanoBRET Fold Response (MTNR1B; 1μM tracer): 2.32 | NanoBRET Fold Response (PTGER3; 0.1μM tracer): 1.04 | NanoBRET Fold Response (PTGER3; 1μM tracer): 1.20 | NanoBRET Fold Response (OXTR; 0.1μM tracer): 0.99 | NanoBRET Fold Response (OXTR; 1μM tracer): 0.87

COc1ccccc1N1CCN(CCCCN2C(=O)c3ccc(CNC(=O)CCOCCOCCOCCOCCNC(=O)CCc4ccc5n4[B-](F)(F)[N+]4=C(c6ccc[nH]6)C=CC4=C5)cc3C2=O)CC1 [NAN-190-2-NB590]
NanoBRET Fold Response (MTNR1B; MTNR1B, tracer 1μM): 1.00 | NanoBRET Fold Response (PTGER3; PTGER3, tracer 0.1μM): 1.00 | NanoBRET Fold Response (PTGER3; PTGER3, tracer 1μM): 1.02 | NanoBRET Fold Response (OXTR; OXTR, tracer 0.1μM): 0.96

O=C(CCc1ccc2n1[B-](F)(F)[N+]1=C(c3ccc[nH]3)C=CC1=C2)NCCOCCOCCNC(=O)OCCOCCN1CCN(C2=Nc3ccccc3Sc3ccccc32)CC1 [Quetiapine-a-2-NB590]
NanoBRET Fold Response (MTNR1B; MTNR1B, tracer 0.1μM): 1.11 | NanoBRET Fold Response (MTNR1B; MTNR1B, tracer 1μM): 0.92 | NanoBRET Fold Response (PTGER3; PTGER3, tracer 0.1μM): 0.97 | NanoBRET Fold Response (PTGER3; PTGER3, tracer 1μM): 1.04 | NanoBRET Fold Response (OXTR; OXTR, tracer 0.1μM): 1.10 | NanoBRET Fold Response (OXTR; OXTR, tracer 1μM): 0.82

O=C(CCOCCOCCOCCOCCNC(=O)CCc1ccc2n1[B-](F)(F)[N+]1=C(c3ccc[nH]3)C=CC1=C2)NCCCN1CCN(C2=Nc3cc(Cl)ccc3Nc3ccccc32)CC1 [Clozapine-a-2-NB590]
NanoBRET Fold Response (MTNR1B; MTNR1B, 0.1μM tracer): 1.06 | NanoBRET Fold Response (MTNR1B; MTNR1B, 1μM tracer): 0.97 | NanoBRET Fold Response (PTGER3; PTGER3, 0.1μM tracer): 1.03 | NanoBRET Fold Response (PTGER3; PTGER3, 1μM tracer): 1.12 | NanoBRET Fold Response (OXTR; OXTR, 0.1μM tracer): 1.03 | NanoBRET Fold Response (OXTR; OXTR, 1μM tracer): 1.01
